In US8574563B2 (Bristol-Myers Squibb Company, priority 2006, dated 2013):
Like-named read-outs stand apart in the source and are kept apart here.

Tested on: HCV 1b-377-neo replicon cells
Assay: HCV replicon assay, HCV 1b-377-neo replicon cells (1b FRET)
Type: cell-based, Hepatitis C virus genotype 1b
Conditions: HCV 1b-377-neo replicon cells, HCV 1b genotype; for EC50: read-out: EC50 range against HCV 1b (Table 2, Range)
Procedure, shortened: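 Compounds were tested in genotype 1b subgenomic replicon cells carrying a neomycin marker, alongside a matched replicon line with an NS5A Y2065H substitution that confers resistance to a reference NS5A inhibitor.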

COC(=O)N[C@H](C(=O)N1CCC[C@H]1c1ncc(-c2ccc(-c3ccc(-c4cnc([C@@H]5CCCN5C(=O)[C@@H](NC(=O)OC)C5CC5)[nH]4)cc3C(=O)O)cc2)[nH]1)C1CC1 [Example M116, 4,4′-bis(2-((2S)-1-((2S)-2-cyclopropyl-2-((methoxycarbonyl)amino)acetyl)-2-pyrrolidinyl)-1H-imidazol-5-yl)-2-biphenylcarboxylic acid]
EC50 range against HCV 1b (Table 2, Range): >A

COC(=O)N[C@H](C(=O)N1CCC[C@H]1c1ncc(-c2ccc(-c3ccc(-c4cnc([C@@H]5CCCN5C(=O)[C@H](NC5=NCCN5)C(C)C)[nH]4)cc3)cc2)[nH]1)C1CC1 [cj-11o, methyl ((1S)-1-cyclopropyl-2-((2S)-2-(5-(4′-(2-((2S)-1-(N-(4,5-dihydro-1H-imidazol-2-yl)-D-valyl)-2-pyrrolidinyl)-1H-imidazol-5-yl)-4-biphenylyl)-1H-imidazol-2-yl)-1-pyrrolidinyl)-2-oxoethyl)carbamate]
EC50 (Hepatitis C virus): 1 to 99 nM

CCCN(CCC)[C@H](C)C(=O)N1CCC[C@H]1c1ncc(-c2ccc(-c3ccc(-c4cnc([C@@H]5CCCN5C(=O)[C@@H](c5ccccc5)N(CC)CC)[nH]4)cc3)cc2)[nH]1 [Example M46, N-((1R)-2-((2S)-2-(5-(4′-(2-((2S)-1-((2R)-2-(diethylamino)-2-phenylacetyl)-2-pyrrolidinyl)-1H-imidazol-5-yl)-4-biphenylyl)-1H-imidazol-2-yl)-1-pyrrolidinyl)-1-methyl-2-oxoethyl)-N-propyl-1-propanamine]
EC50 (Hepatitis C virus): 1 to 99 nM

CC(=O)N1[C@@H](C)CC[C@H]1c1ncc(-c2ccc(-c3ccc(-c4cnc([C@@H]5CC[C@H](C)N5C(C)=O)[nH]4)cc3)cc2)[nH]1 (stereo in doubt) [Example M162, 2-((2S,5S)-1-acetyl-5-methyl-2-pyrrolidinyl)-4-(4′-(2-((2S,5S)-1-acetyl-5-methyl-2-pyrrolidinyl)-1H-imidazol-5-yl)-4-biphenylyl)-1H-imidazole]
EC50 (Hepatitis C virus): 1 to 99 nM

CCN(CC)[C@@H](C(=O)N1CCC[C@H]1c1ncc(-c2ccc(-c3ncc(-c4c[nH]c([C@@H]5CCCN5C(=O)[C@H](C)NC(=O)OC)n4)cn3)cc2)[nH]1)c1ccccc1 [Example D77, methyl ((1S)-2-((2S)-2-(5-(2-(4-(2-((2S)-1-((2R)-2-(diethylamino)-2-phenylacetyl)-2-pyrrolidinyl)-1H-imidazol-5-yl)phenyl)-5-pyrimidinyl)-1H-imidazol-2-yl)-1-pyrrolidinyl)-1-methyl-2-oxoethyl)carbamate]
EC50 (Hepatitis C virus): 0.001 to 0.999 nM

COC(=O)N[C@H](CC(=O)N1CCC[C@H]1c1ncc(-c2ccc(-c3ccc(-c4cnc([C@@H]5CCCN5C(=O)C[C@@H](NC(=O)OC)c5ccccc5)[nH]4)cc3)cc2)[nH]1)c1ccccc1 [cj-128, methyl ((1R)-3-((2S)-2-(5-(4′-(2-(1-((3R)-3-((methoxycarbonyl)amino)-3-phenylpropanoyl)-2-pyrrolidinyl)-1H-imidazol-5-yl)-4-biphenylyl)-1H-imidazol-2-yl)-1-pyrrolidinyl)-3-oxo-1-phenylpropyl)carbamate]
EC50 (Hepatitis C virus): 0.001 to 0.999 nM

COC(=O)N[C@H](C(=O)N1CCC[C@H]1c1ncc(-c2ccc(-c3ccc(-c4cnc([C@@H]5CCCN5C(=O)CNCC(C)C)[nH]4)cc3)cc2)[nH]1)C(C)C [LS23, methyl ((1S)-1-(((2S)-2-(5-(4′-(2-((2S)-1-(N-isobutylglycyl)-2-pyrrolidinyl)-1H-imidazol-5-yl)-4-biphenylyl)-1H-imidazol-2-yl)-1-pyrrolidinyl)carbonyl)-2-methylpropyl)carbamate]
EC50 (Hepatitis C virus): 0.001 to 0.999 nM

COC(=O)N[C@@H](C(=O)N1CCC[C@H]1c1ncc(-c2ccc(-c3ccc(-c4cnc([C@@H]5CCCN5C(=O)C(c5cccs5)N(C)C)[nH]4)cc3)cc2)[nH]1)c1ccccc1 (stereo partly drawn) [Example 84-46, methyl ((1R)-2-((2S)-2-(5-(4′-(2-((2S)-1-((dimethylamino)(2-thienyl)acetyl)-2-pyrrolidinyl)-1H-imidazol-5-yl)-4-biphenylyl)-1H-imidazol-2-yl)-1-pyrrolidinyl)-2-oxo-1-phenylethyl)carbamate]
EC50 (Hepatitis C virus): 0.001 to 0.999 nM

COC(=O)N[C@H]1CC[C@H](C(=O)N2CCC[C@H]2c2ncc(-c3ccc(-c4ccc(-c5cnc([C@@H]6CCCN6C(=O)[C@H]6CC[C@H](NC(=O)OC)CC6)[nH]5)cc4)cc3)[nH]2)CC1 [cj-151, dimethyl (4,4′-biphenyldiylbis(1H-imidazole-5,2-diyl(2S)-2,1-pyrrolidinediylcarbonyltrans-4,1-cyclohexanediyl))biscarbamate]
EC50 (Hepatitis C virus): 1 to 99 nM

CN(C)[C@@H](C(=O)N1CCC[C@H]1c1ncc(-c2ccc(-c3ccc(-c4cnc([C@@H]5CCCN5C(=O)[C@H]5CC[C@@H](NC(=O)OC(C)(C)C)CC5)[nH]4)cc3)cc2)[nH]1)c1ccccc1 [Example 94-33, tert-butyl (cis-4-(((2S)-2-(5-(4′-(2-((2S)-1-((2R)-2-(dimethylamino)-2-phenylacetyl)-2-pyrrolidinyl)-1H-imidazol-5-yl)-4-biphenylyl)-1H-imidazol-2-yl)-1-pyrrolidinyl)carbonyl)cyclohexyl)carbamate]
EC50 (Hepatitis C virus): 1 to 99 nM

COC(=O)N[C@@H](C)C(=O)N1CCC[C@H]1c1ncc(-c2cnc(-c3ccc(-c4[nH]c([C@@H]5CCCN5C(=O)[C@H](C)NC(=O)OC)nc4C(F)(F)F)cc3)nc2)[nH]1 [Example J50, methyl ((1S)-2-((2S)-2-(5-(4-(5-(2-((2S)-1-(N-(methoxycarbonyl)-L-alanyl)-2-pyrrolidinyl)-1H-imidazol-5-yl)-2-pyrimidinyl)phenyl)-4-(trifluoromethyl)-1H-imidazol-2-yl)-1-pyrrolidinyl)-1-methyl-2-oxoethyl)carbamate]
EC50 (Hepatitis C virus): 0.001 to 0.999 nM

COC(=O)N[C@@H](CC(N)=O)C(=O)N1CCC[C@H]1c1ncc(-c2ccc(-c3ccc(-c4cnc([C@@H]5CCCN5C(=O)[C@@H](NC(=O)OC)C(C)C)[nH]4)cc3)cc2)[nH]1 [Example M91y, methyl ((1S)-3-amino-1-(((2S)-2-(5-(4′-(2-((2S)-1-((2S)-2-((methoxycarbonyl)amino)-3-methylbutanoyl)-2-pyrrolidinyl)-1H-imidazol-5-yl)-4-biphenylyl)-1H-imidazol-2-yl)-1-pyrrolidinyl)carbonyl)-3-oxopropyl)carbamate (non-preferred name)]
EC50: 100 to 999 nM

COC(=O)N[C@H](C(=O)N1C[C@H](O)C[C@H]1c1ncc(-c2ccc(-c3ccc(-c4cnc([C@@H]5C[C@@H](O)CN5C(=O)[C@@H](NC(=O)OC)C(C)C)[nH]4)cc3)cc2)[nH]1)C(C)C [JG-5, methyl ((1S)-1-(((2S,4R)-4-hydroxy-2-(5-(4′-(2-((2S,4R)-4-hydroxy-1-((2S)-2-((methoxycarbonyl)amino)-3-methylbutanoyl)-2-pyrrolidinyl)-1H-imidazol-5-yl)-4-biphenylyl)-1H-imidazol-2-yl)-1-pyrrolidinyl)carbonyl)-2-methylpropyl)carbamate]
EC50 (Hepatitis C virus): 0.001 to 0.999 nM

CC(C)[C@@H](C(=O)N1CCC[C@H]1c1nc(-c2ccc(-c3ccc(-c4cnc([C@@H]5CCCN5C(=O)[C@H](C(C)C)N(C)C(=O)OC(C)(C)C)[nH]4)cc3)cc2)c[nH]1)N(C)C(=O)OC(C)(C)C [Example F30, tert-butyl ((1S)-1-(((2S)-2-(5-(4′-(2-((2S)-1-((2S)-2-((tert-butoxycarbonyl)(methyl)amino)-3-methylbutanoyl)-2-pyrrolidinyl)-1H-imidazol-4-yl)-4-biphenylyl)-1H-imidazol-2-yl)-1-pyrrolidinyl)carbonyl)-2-methylpropyl)methylcarbamate]
EC50 (Hepatitis C virus): 1 to 99 nM

COC(=O)N[C@H](C(=O)N1CCC[C@H]1c1ncc(-c2ccc(-c3ccc(-c4[nH]c([C@@H]5CCCN5C(=O)[C@@H](NC(=O)OC)C5CC5)nc4C(F)(F)F)cc3)cc2)[nH]1)C1CC1 [Example J41, methyl ((1S)-1-cyclopropyl-2-((2S)-2-(5-(4′-(2-((2S)-1-((2S)-2-cyclopropyl-2-((methoxycarbonyl)amino)acetyl)-2-pyrrolidinyl)-1H-imidazol-5-yl)-4-biphenylyl)-4-(trifluoromethyl)-1H-imidazol-2-yl)-1-pyrrolidinyl)-2-oxoethyl)carbamate]
EC50 (Hepatitis C virus): 0.001 to 0.999 nM

O=C([C@H]1CCCO1)N1CSC[C@H]1c1ncc(-c2ccc(-c3ccc(-c4cnc([C@@H]5CSCN5C(=O)[C@H]5CCCO5)[nH]4)cc3)cc2)[nH]1 [Example 150, (4R,4′R)-4,4′-(4,4′-biphenyldiylbis(1H imidazole-5,2-diyl))bis(3-((2R)-tetrahydro-2-furanylcarbonyl)-1,3-thiazolidine)]
EC50 (Hepatitis C virus): 1 to 99 nM

C=CC[C@H](NC(=O)OC)C(=O)N1CCC[C@H]1c1ncc(-c2ccc(-c3ccc(-c4cnc([C@@H]5CCCN5C(=O)[C@H](CC=C)NC(=O)OC)[nH]4)cc3)cc2)[nH]1 [Example M25, dimethyl (4,4′-biphenyldiylbis(1H-imidazole-5,2-diyl(2S)-2,1-pyrrolidinediyl((4S)-5-oxo-1-pentene-5,4-diyl)))biscarbamate]
EC50 (Hepatitis C virus): 1 to 99 nM

CN(C)[C@@H](C(=O)N1CCC[C@H]1c1ncc(-c2ccc(-c3ccc(-c4cnc([C@@H]5CCCN5C(=O)Cc5cccnc5)[nH]4)cc3)cc2)[nH]1)c1ccccc1 [Example 85, (1R)-N,N-dimethyl-2-oxo-1-phenyl-2((2S)-2-(5-(4′-(2-((2S)-1-(3-pyridinylacetyl)-2-pyrrolidinyl)-1H-imidazol-5-yl)-4-biphenylyl)-1H-imidazol-2-yl)-1-pyrrolidinyl)ethanamine]
EC50 (Hepatitis C virus): 0.001 to 0.999 nM

COC(=O)N[C@@H](C)C(=O)N1CCC[C@H]1c1ncc(-c2ccc(-c3ccc(-c4cnc([C@@H]5CCCN5C(=O)[C@H](Cc5cn(C)cn5)NC(=O)OC)[nH]4)cc3)cc2)[nH]1 [cj-41, methyl ((1S)-2-((2S)-2-(5-(4′-(2-((2S)-1-(N-(methoxycarbonyl)-L-alanyl)-2-pyrrolidinyl)-1H-imidazol-5-yl)-4-biphenylyl)-1H-imidazol-2-yl)-1-pyrrolidinyl)-1-((1-methyl-1H-imidazol-4-yl)methyl)-2-oxoethyl)carbamate]
EC50 (Hepatitis C virus): 0.001 to 0.999 nM
